Data set [1] in a line: Cytotoxicity against human NHDF cells assessed as reduction in cell viability incubated for 24 hrs by CellTiter Glo luminescence assay. Format: toxicity, cell-based. On the technique in general: ATP-based viability assays read luminescence as a measure of living cells.
Data set [2] concerns dengue virus type 2. In words: Antiviral activity against Dengue virus 2 NGC infected in human HEK293 cells assessed as log reduction of virus titer at 10 uM measured at 3 days post-infection by focus-forming assay. The settings on record: time 3 day. Format: functional.
The subject of data set [3] is West Nile virus. In words: Antiviral activity against West Nile virus NY99 infected in human HEK293 cells assessed as reduction of virus load measured at 3 days post-infection by focus-forming assay. Particulars: NY99, HEK293, 72 h, time 3 day. Format: functional.
Data set [4] can be described thus: Cytotoxicity against human NHDF cells deficient of IRF3 assessed as reduction in cell viability incubated for 72 hrs by CellTiter Glo luminescence assay. Format: toxicity, cell-based.
Data set [5] deals with Venezuelan equine encephalitis virus. Briefly: Antiviral activity against VEEV TC-83 infected in human NHDF cells assessed as reduction of virus titer treated with cells at 1 hr prior to infection and measured at 24 hrs post-infection by plaque assay. Format: functional. Particulars: TC-83, NHDF, time 25 hrs.
A short description of data set [6]: Cytotoxicity against human HEK293 cells. The class given is toxicity, cell-based.
Data set [7] relates to Chikungunya virus. Briefly: Antiviral activity against Chikungunya virus 181/25 infected in human NHDF cells assessed as reduction of virus titer treated with cells at 1 hr prior to infection and measured at 24 hrs post-infection by plaque assay. The class given is functional, organism-based. Particulars: 181/25, NHDF; for EC90: time 25 hrs.
A short description of data set [8]: Octanol/PBS buffer distribution coefficient, logD of the compound at pH 7.5 by LC-MS analysis. Format: physicochemical.
Data set [9] deals with Zika virus. In words: Antiviral activity against Zika virus PRABC59 infected in human HEK293 cells assessed as log reduction of virus titer at 10 uM measured at 3 days post-infection by focus-forming assay. The class given is functional. Particulars: time 3 day.
The test system of data set [10] is West Nile virus. In words: Antiviral activity against West Nile virus NY99 infected in human HEK293 cells assessed as log reduction of virus titer at 10 uM measured at 3 days post-infection by focus-forming assay. Format: functional. The settings on record: time 3 day.
Data set [11] has as its system Chikungunya virus. In words: Antiviral activity against Chikungunya virus 181/25 infected in human NHDF cells assessed as log reduction of virus titer at 10 uM treated with cells at 1 hr prior to infection and measured at 24 hrs post-infection by plaque assay. The settings on record: time 25 hrs. The class given is functional.
Data set [12] in a line: Kinetic solubility of the compound in simulated intestinal fluid at pH 7.5 by LC-MS analysis. Format: physicochemical. The settings on record: read-out: Kinetic_solubility.
Data set [13] has as its system dengue virus type 2. In words: Antiviral activity against Dengue virus 2 NGC infected in human HEK293 cells assessed as reduction of virus load measured at 3 days post-infection by focus-forming assay. Format: functional. The settings on record: HEK293, 72 h, time 3 day.
In data set [14] the test system is Venezuelan equine encephalitis virus. Briefly: Antiviral activity against VEEV TC-83 infected in human NHDF cells assessed as log reduction of virus titer at 10 uM treated with cells at 1 hr prior to infection and measured at 24 hrs post-infection by plaque assay. Format: functional. The settings on record: time 25 hrs.
A short description of data set [15]: Half life of the compound in mouse liver microsomes in presence of NADPH by LC-MS/MS analysis. The class given is ADME, Microsome. For orientation: Liver microsomes are a subcellular fraction often used to study metabolism.
Data set [16] deals with Zika virus. In words: Antiviral activity against Zika virus PRABC59 infected in human HEK293 cells assessed as reduction of virus load measured at 3 days post-infection by focus-forming assay. The settings on record: PRABC59, HEK293, 72 h, time 3 day. Format: functional.
Data set [17] in a line: Half life of the compound in human liver microsomes in presence of NADPH by LC-MS/MS analysis. Format: ADME, Microsome.
Data set [18] has as its system Chikungunya virus. In words: Antiviral activity against Chikungunya virus Sri Lanka strain infected in African green monkey Vero E6 cells assessed as inhibition of virus-induced cytopathic effect incubated for 72 hrs by CellTiter Glo luminescence assay. Particulars: Vero C1008, 72 h. Format: functional, organism-based.
Data set [19] in a line: Cytotoxicity against African green monkey VeroE6 cells assessed as reduction in cell viability incubated for 72 hrs by CellTiter Glo luminescence analysis. Format: toxicity, cell-based, Vero C1008. The settings on record: chlorocebus sabaeus.
Data set [20] deals with Chikungunya virus. Briefly: Antiviral activity against Chikungunya virus infected in human NHDF cells assessed as inhibition of viral production by NanoLuc reporter assay. The class given is functional, organism-based. Background: In a reporter assay the amount or activity of a reporter protein is the signal.

We go through three compounds from ChEMBL document CHEMBL6074675, “4-Substituted-2-Thiazole Amides as Viral Replication Inhibitors of Alphaviruses” (J Med Chem, 2024).

Molecules are shown by their SMILES.

As to `CSc1ncccc1C(=O)Nc1nc(-c2cccc(-c3cccc(C#N)c3)c2)cs1`, the CC50 – broadly, the concentration that lowers cell viability or growth by half – at 24 h in [1] was more than 30000 nM. Further, the “log(activity)” value in the data set with dengue virus type 2 [2] worked out at 2.9; in the data set on Zika virus [9], 3.5; in the data set on West Nile virus [10], 2.7; with Chikungunya virus [11], 5.3; in data set [14], 5.2. Moreover, the EC90 (usually the point of the concentration-response curve where the effect stands at 90%) worked out at 1500 nM in the data set on West Nile virus [3]; 350 nM in [5]; 100 nM in the data set with Chikungunya virus [7]; 300 nM in the data set on dengue virus type 2 [13]; 300 nM in the data set on Zika virus [16]. Besides, the CC50 at 72 h in data set [4] is more than 30000 nM. The same compound had a CC50 in [6] of more than 30000 nM. For the same compound, the logD (commonly lipophilicity at a set pH, counting ionised and neutral species) in [8] amounted to 3. Besides, the solubility kinetic in [12] is less than 1 µM. In addition, the half-life (in general, the time needed for the level to fall by half in the phase considered) came out at 31 min in [15] and 21 min in data set [17].

As to `CCOC(=O)N1CCN(c2cc(-c3ccc(C#N)cc3)cc(-c3csc(NC(=O)c4cccnc4SC)n3)c2)CC1`, the CC50 at 24 h in [1] is more than 30000 nM. The “log(activity)” value in the data set on dengue virus type 2 [2] amounted to 3.3; in the data set on Zika virus [9], 3.5; in the data set with West Nile virus [10], 4; in the data set with Chikungunya virus [11], 8.1; in data set [14], 4.9. The EC90 in the data set on West Nile virus [3] was 150 nM; in [5], 20 nM; in the data set on Chikungunya virus [7], 20 nM; in the data set with dengue virus type 2 [13], 300 nM; in the data set with Zika virus [16] it was 150 nM. Further, the CC50 at 72 h in [4] is more than 40000 nM. This compound displayed a CC50 in data set [6] of more than 30000 nM. The compound also yielded a logD in data set [8] of more than 3.99. The solubility kinetic in data set [12] is less than 1 µM. Moreover, the half-life turned out to be 63 min in data set [15] and 21 min in data set [17].

Take `CSc1ncccc1C(=O)Nc1nc(-c2ccc3ccccc3c2)cs1`: in [1], the CC50 at 24 h came to 132000 nM. The CC50 at 72 h in data set [4] was more than 40000 nM; in [19], 107000 nM. Further, the EC50 (usually the concentration giving half of the maximal effect) in the data set with Chikungunya virus [18] stood at 4500 nM; with Chikungunya virus [7] it was 4700 nM; in the data set on Chikungunya virus [20], 1060 nM. Also, the EC90 with Chikungunya virus [7] turned out to be 930 nM. The logD in [8] worked out at 4.8. In addition, the “log(activity)” value in the data set on Chikungunya virus [11] amounted to 6.9. Besides, in data set [12], the solubility kinetic was less than 1 µM. Further, the half-life in data set [15] came to 27 min; in [17] it was 35 min.
